Literature values in patent publication US20060148897A1, “Method for sterilization using in situ gelling materials” (priority 2002, published 2006).

Conditions: amine group (alpha amine; lysine: side chain epsilon amine)

Structure (SMILES) | pK
NC(=O)C[C@H](N)C(=O)O [asparagine] | 8.8
NCCCC[C@H](N)C(=O)O [lysine] | 10.80
